Measurements published in patent US11629171B2, “Beta-hairpin peptidomimetics” (POLYPHOR AG, priority 2017, dated 2023).
Values after ≈ are worked out from the molar mass of the structure shown. Where a SMILES comes first, the peptide text is derived from it. Bridges are numbered along the chain shown (N, C = ends). Roman numbers before positions name the chains, in order. [ ]: non-standard residue; d: D form. The star is where a group is joined. Thr(ol) = C[C@@H](O)[C@H](N)CO; Pen = CC(C)(S)[C@H](N)C(=O)O; Tle = CC(C)(C)[C@H](N)C(=O)O; Hiv = CC(C)[C@H](O)C(=O)O; dDab = NCC[C@@H](N)C(=O)O; hSer = N[C@@H](CCO)C(=O)O; NHCH(CH2OH)2 = OCC(CO)N*; Orn = NCCC[C@H](N)C(=O)O; Dab = NCC[C@H](N)C(=O)O; Dap = NC[C@H](N)C(=O)O

Columns and labels:
Assay type in all cases: cell-based
[1] = system: Pseudomonas aeruginosa ATCC 27853; conditions: ATCC 27853
Outline: (§1)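 MIC in μg/mL, read as no visible growth after 18-20 hours at 35° C. Peptides were serially diluted two-fold in MH-II broth plus P-80 (0.002% final, v/v) and inoculated at about 10^6 CFU/mL following the CLSI broth microdilution standard.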

[2] = system: Klebsiella pneumoniae SSI #3010; conditions: SSI #3010
Outline: as §1

[3] = system: Escherichia coli ATCC 25922; conditions: ATCC 25922
Outline: as §1

[4] = system: Escherichia coli 926415; conditions: 926415
Outline: as §1

[5] = system: Acinetobacter baumannii DSM 30008; conditions: DSM 30008
Outline: as §1

[6] = system: Klebsiella pneumoniae 968733; conditions: 968733
Outline: as §1

[7] = system: Acinetobacter baumannii 872842; conditions: 872842
Outline: as §1

[8] = system: Enterobacter cloacae 848840; conditions: 848840
Outline: as §1

[9] = system: human red blood cells (hRBC); test: Hemolysis; conditions: red cells of human, 1 h, 200
Outline: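 hRBC washed 4× in PBS; 200 μg/mL peptide + 20% (v/v) hRBC, 1 h, 37° C, 300 rpm. Spin, supernatant ~7.5-fold diluted, OD540 blank corrected. % hemolysis = OD540 peptide / OD540 Triton X-100 × 100.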

| MIC [1] | MIC [2] | MIC [3] | MIC [4] | MIC [5] | MIC [6] | MIC [7] | MIC [8] | SMILES | Hemolysis at 200 μg/mL [9] |
| --- | --- | --- | --- | --- | --- | --- | --- | --- | --- |
| 0.125 µg/mL (≈ 0.0533 µM) | 0.125 µg/mL (≈ 0.0533 µM) | 0.0625 µg/mL (≈ 0.0267 µM) | 0.5 µg/mL (≈ 0.213 µM) | 0.0625 µg/mL (≈ 0.0267 µM) | 0.5 µg/mL (≈ 0.213 µM) | 0.25 µg/mL (≈ 0.107 µM) | 0.25 µg/mL (≈ 0.107 µM) | CC(C)C[C@@H]1NC(=O)[C@@H](CC(C)C)NC(=O)[C@H](CCN)NC(=O)[C@@H](NC(=O)[C@H](CN)NC(=O)[C@@H](NC(=O)[C@H](CCN)NC(=O)CC[C@@H]2NC(=O)[C@@H](NC(=O)[C@H](Cc3ccc(O)cc3)NC(=O)[C@@H](NC(=O)[C@@H](O)C(C)C)[C@@H](C)O)CSSC[C@@H](C(=O)N[C@H](C(=O)N[C@@H](C)C(=O)NC(CO)CO)C(C)(C)C)NC(=O)[C@H](Cc3c[nH]c4ccccc34)NC(=O)[C@H](CO)NC(=O)[C@@H](CCN)NC2=O)[C@@H](C)O)CCNC(=O)[C@H]([C@@H](C)O)NC(=O)[C@H](CCN)NC(=O)[C@H](CCN)NC1=O [Ex. 197] (I: H-[Hiv]TYCE[dDab]SWC[Tle]A-{NHCH(CH2OH)2} / II: [Dab]T[Dap][Dab][Dab][dL]L[Dab][Dab]T; disulfide I:4-I:9; amide I:5-II:N; lactam II:4-II:C) | <1% |
| 0.125 µg/mL (≈ 0.0513 µM) | 0.0625 µg/mL (≈ 0.0256 µM) | 0.03125 µg/mL (≈ 0.0128 µM) | 0.0625 µg/mL (≈ 0.0256 µM) | 0.0625 µg/mL (≈ 0.0256 µM) | 0.5 µg/mL (≈ 0.205 µM) | 0.0625 µg/mL (≈ 0.0256 µM) | 0.125 µg/mL (≈ 0.0513 µM) | CC(=O)N[C@H](C(=O)N[C@H](C(=O)N[C@@H](Cc1ccc(O)cc1)C(=O)N[C@H]1CSSC[C@@H](C(=O)N[C@H](C(=O)N[C@@H](CCN)C(=O)N[C@H](C(N)=O)C(C)C)C(C)(C)C)NC(=O)[C@H](Cc2c[nH]c3ccccc23)NC(=O)[C@H](CO)NC(=O)[C@@H](CCN)NC(=O)[C@H](CCC(=O)N[C@@H](CCN)C(=O)N[C@H](C(=O)N[C@@H](CN)C(=O)N[C@H]2CCNC(=O)[C@H]([C@@H](C)O)NC(=O)[C@H](CCN)NC(=O)[C@H](CCN)NC(=O)[C@H](CC(C)C)NC(=O)[C@@H](CC(C)C)NC(=O)[C@H](CCN)NC2=O)[C@@H](C)O)NC1=O)[C@@H](C)O)C(C)C [Ex. 206] (I: Ac-VTYCE[dDab]SWC[Tle][Dab]V-NH2 / II: [Dab]T[Dap][Dab][Dab][dL]L[Dab][Dab]T; disulfide I:4-I:9; amide I:5-II:N; lactam II:4-II:C) | 1% |
| 0.25 µg/mL (≈ 0.105 µM) | 0.25 µg/mL (≈ 0.105 µM) | 0.125 µg/mL (≈ 0.0524 µM) | 2 µg/mL (≈ 0.838 µM) | 0.25 µg/mL (≈ 0.105 µM) | 2 µg/mL (≈ 0.838 µM) | 0.5 µg/mL (≈ 0.21 µM) | 2 µg/mL (≈ 0.838 µM) | CC(C)C[C@@H]1NC(=O)[C@@H](CC(C)C)NC(=O)[C@H](CCN)NC(=O)[C@@H](NC(=O)[C@H](CN)NC(=O)[C@@H](NC(=O)[C@H](CCN)NC(=O)CC[C@H]2NC(=O)[C@H](CCCN)NC(=O)[C@@H](NC(=O)[C@H](Cc3ccc(O)cc3)NC(=O)[C@@H](NC(=O)[C@@H](O)C(C)C)[C@@H](C)O)CSSC[C@@H](C(=O)N[C@H](C(=O)N[C@@H](C)C(=O)N[C@H](CO)[C@@H](C)O)C(C)(C)C)NC(=O)[C@H](Cc3c[nH]c4ccccc34)NC(=O)[C@H]([C@@H](C)O)NC2=O)[C@@H](C)O)CCNC(=O)[C@H]([C@@H](C)O)NC(=O)[C@H](CCN)NC(=O)[C@H](CCN)NC1=O [Ex. 210] (I: H-[Hiv]TYC[Orn][dE]TWC[Tle]A[Thr(ol)] / II: [Dab]T[Dap][Dab][Dab][dL]L[Dab][Dab]T; disulfide I:4-I:9; amide I:6-II:N; lactam II:4-II:C) | <1% |

More lines, now with the values behind:

| SMILES | MIC [1] | MIC [2] | MIC [3] | MIC [4] | MIC [5] | MIC [6] | MIC [7] | MIC [8] | Hemolysis at 200 μg/mL [9] |
| --- | --- | --- | --- | --- | --- | --- | --- | --- | --- |
| CC(C)C[C@@H]1NC(=O)[C@@H](CC(C)C)NC(=O)[C@H](CCN)NC(=O)[C@@H](NC(=O)[C@H](CCN)NC(=O)[C@@H](NC(=O)[C@H](CCN)NC(=O)CC[C@@H]2NC(=O)[C@@H](NC(=O)[C@H](Cc3ccc(O)cc3)NC(=O)[C@H](CCN)NC(=O)[C@@H](O)C(C)C)CSSC[C@@H](C(=O)N[C@H](C(=O)N[C@@H](CCC(=O)O)C(=O)N[C@H](CO)[C@@H](C)O)C(C)(C)C)NC(=O)[C@H](Cc3c[nH]c4ccccc34)NC(=O)[C@H]([C@@H](C)O)NC(=O)[C@@H](CCN)NC2=O)[C@@H](C)O)CCNC(=O)[C@H]([C@@H](C)O)NC(=O)[C@H](CCN)NC(=O)[C@H](CCN)NC1=O [Ex. 191] (I: H-[Hiv][Dab]YCE[dDab]TWC[Tle]E[Thr(ol)] / II: [Dab]T[Dab][Dab][Dab][dL]L[Dab][Dab]T; disulfide I:4-I:9; amide I:5-II:N; lactam II:4-II:C) | 0.25 µg/mL (≈ 0.102 µM) | 0.25 µg/mL (≈ 0.102 µM) | 0.125 µg/mL (≈ 0.0512 µM) | 1 µg/mL (≈ 0.409 µM) | 0.125 µg/mL (≈ 0.0512 µM) | 2 µg/mL (≈ 0.819 µM) | 0.5 µg/mL (≈ 0.205 µM) | 0.5 µg/mL (≈ 0.205 µM) | 1% |
| CC(C)C[C@@H]1NC(=O)[C@@H](CC(C)C)NC(=O)[C@H](CCN)NC(=O)[C@@H](NC(=O)[C@H](CCN)NC(=O)[C@@H](NC(=O)[C@H](CCN)NC(=O)CC[C@@H]2NC(=O)[C@@H](NC(=O)[C@H](Cc3ccc(O)cc3)NC(=O)[C@@H](NC(=O)[C@@H](O)C(C)C)[C@@H](C)O)CSSC[C@@H](C(=O)N[C@H](C(=O)N[C@@H](C)C(=O)N[C@H](CO)[C@@H](C)O)C(C)(C)C)NC(=O)[C@H](Cc3c[nH]c4ccccc34)NC(=O)[C@H](CCO)NC(=O)[C@@H](CCN)NC2=O)[C@@H](C)O)CCNC(=O)[C@H]([C@@H](C)O)NC(=O)[C@H](CCN)NC(=O)[C@H](CCN)NC1=O [Ex. 193] (I: H-[Hiv]TYCE[dDab][hSer]WC[Tle]A[Thr(ol)] / II: [Dab]T[Dab][Dab][Dab][dL]L[Dab][Dab]T; disulfide I:4-I:9; amide I:5-II:N; lactam II:4-II:C) | 0.25 µg/mL (≈ 0.105 µM) | 0.25 µg/mL (≈ 0.105 µM) | 0.125 µg/mL (≈ 0.0524 µM) | 0.5 µg/mL (≈ 0.21 µM) | 0.0625 µg/mL (≈ 0.0262 µM) | 0.5 µg/mL (≈ 0.21 µM) | 0.5 µg/mL (≈ 0.21 µM) | 0.5 µg/mL (≈ 0.21 µM) | <1% |
| CC(C)C[C@@H]1NC(=O)[C@@H](CC(C)C)NC(=O)[C@H](CCN)NC(=O)[C@@H](NC(=O)[C@H](CCN)NC(=O)[C@@H](NC(=O)[C@H](CCN)NC(=O)CC[C@@H]2NC(=O)[C@@H](NC(=O)[C@H](Cc3ccc(O)cc3)NC(=O)[C@@H](NC(=O)[C@@H](O)C(C)C)[C@@H](C)O)C(C)(C)SSC[C@@H](C(=O)N[C@H](C(=O)N[C@@H](C)C(=O)N[C@H](CO)[C@@H](C)O)C(C)(C)C)NC(=O)[C@H](Cc3c[nH]c4ccccc34)NC(=O)[C@H](CCO)NC(=O)[C@@H](CCN)NC2=O)[C@@H](C)O)CCNC(=O)[C@H]([C@@H](C)O)NC(=O)[C@H](CCN)NC(=O)[C@H](CCN)NC1=O [Ex. 194] (I: H-[Hiv]TY[Pen]E[dDab][hSer]WC[Tle]A[Thr(ol)] / II: [Dab]T[Dab][Dab][Dab][dL]L[Dab][Dab]T; disulfide I:4-I:9; amide I:5-II:N; lactam II:4-II:C) | 0.125 µg/mL (≈ 0.0518 µM) | 0.0625 µg/mL (≈ 0.0259 µM) | 0.0625 µg/mL (≈ 0.0259 µM) | 0.5 µg/mL (≈ 0.207 µM) | 0.0625 µg/mL (≈ 0.0259 µM) | 0.25 µg/mL (≈ 0.104 µM) | 0.25 µg/mL (≈ 0.104 µM) | 0.125 µg/mL (≈ 0.0518 µM) | <1% |
